Patent publication US20220169603A1, “NOVEL SALTS, CRYSTALLINE FORMS AND PREMIX OF HYPOLIPIDEMIC AGENT” (Cadila Healthcare Ltd., priority 2019, published 2022)

Tests used:
[1] = test system: serum triglyceride levels; assay: Comparative efficacy study (triglyceride lowering effects) in Swiss albino mice; type: in vivo; conditions: for % Change Day 6 vs Day 0 (serum triglycerides) / % Change Vs control (serum triglycerides) / Serum triglycerides Day 6: 1 mg/kg free acid equivalent, oral, once daily for six days; for % Change Vs control (serum triglycerides): vs vehicle control; for reduction in serum triglyceride levels as compared to vehicle control group: p.o., six days; for Serum triglycerides Day 0: Day 0, before treatment, male Swiss albino mice, 6 per group; for Serum triglycerides Day 6: Day 6, one hr after dose
Method: The in-vivo efficacy of test compound was evaluated in Swiss albino mice. Anti-dyslipidemic drugs have been reported to lower circulating levels of triglyceride in Swiss albino mice through their effect on genes involved in the peroxisomal fatty acid beta oxidation via PPAR alpha agonism. Therefore, this species is preferred for evaluation of their efficacy in lowering circulating triglyceride (TG) levels.
In this experiment, ten to eleven week old male Swiss albino mice were issued and kept for acclimatization. Near the end of the acclimatization period, animals judged to be suitable for testing were bled under light anesthesia and serum samples were analyzed for serum triglyceride levels.
Test compounds were formulated at specified doses in vehicle (MiliQ Water). The animals were dosed orally, once daily in the morning during six days, starting from next day of grouping with vehicle or test compound. The animals were weighed prior to dosing, and based on these weights; the volume of administration was calculated. The volume of formulation administered to each mouse was 10 ml/kg body weight.
On day 6, one-hr after the dose administration, blood (0.25 ml) was collected from retro-orbital sinus of the anaesthetized animals. Serum was separated by centrifugation. Serum was analyzed for triglyceride levels. Analysis for serum triglyceride levels was performed using Spectrophotometer and commercially available kit. Calculations for determination of % change and % reduction in serum TG levels (Table 3) were performed using MS Excels sheet.

[2] = Stability of selected compounds measured by HPLC purity over 6 months; type: physicochemical
Method: • Column: YMC-pack ODS-AM (type L1) or equivalent; 250×4.6 mm, 5 μm • Wave length: 294 nm • Column temp.: 30° C. • Mobile phase: [Ammonium acetate buffer: Acetonitrile]/[55:45] • Flow rate: 1 ml/min • Injection vol.: 5 μl • Retention time: About 10 mints. • Run time: 60 mints.

[3] = Stability study of Saroglitazar free acid (purity and % of impurity on storage); type: physicochemical
Excerpt: Further the Saroglitazar free acid as disclosed in WO03009841 was always obtained in liquid form.

Molecule | % Change Day 6 vs Day 0 (serum triglycerides) [1] [%] | % Change Vs control (serum triglycerides) [1] [%] | reduction in serum triglyceride levels as compared to vehicle control group ([1]; 1 mg/kg) | Serum triglycerides Day 0 [1] [mg/dL] | Serum triglycerides Day 6 [1] [mg/dL] | HPLC (% purity) At 0 month [2] [%] | HPLC (% purity) After 6 months [2] [%] | Serum triglycerides Day 6 ([1]; 1 mg/kg) [mg/dL] | other results
CCO[C@@H](Cc1ccc(OCCn2c(C)ccc2-c2ccc(SC)cc2)cc1)C(=O)[O-].[Na+] [Example 6, (S)-2-ethoxy-3-(4-(2-(2-methyl-5-(4-(methylthio)phenyl)-1H-pyrrol-1-yl)ethoxy)phenyl)propanoic Acid Sodium Salt] | −34.4 ± 10.5 | −62.7 ± 6.0 | 62.7% | 59.6 ± 5.4 | 39.0 ± 7.5 |  |  |  | 
CCO[C@@H](Cc1ccc(OCCn2c(C)ccc2-c2ccc(SC)cc2)cc1)C(=O)[O-].[Li+] [Example 12, (S)-2-ethoxy-3-(4-(2-(2-methyl-5-(4-(methylthio)phenyl)-1H-pyrrol-1-yl)ethoxy)phenyl)propanoic Acid Lithium Salt] |  |  |  |  |  | 96.82 | 95.50 |  | 
CCO[C@@H](Cc1ccc(OCCn2c(C)ccc2-c2ccc(SC)cc2)cc1)C(=O)O [Saroglitazar, (S) 2-Ethoxy-3-(4-{2-[2-methyl-5-(4-methylthiophenyl)-pyrrol-1-yl]-ethoxy}-phenyl)-propionic acid] | 8.7 ± 9.0 | −38.2 ± 5.1 | 38.2% | 61.8 ± 7.4 | 65.9 ± 7.7 |  |  |  | % of impurity (RT-~22.0 min) AFTER 6 DAYS ([3]; at 0-5° C.): (0.598%); PURITY AFTER 6 DAYS ([3]; at 0-5° C.): 98.44%; % of impurity (RT-~22.0 min) AFTER 17 DAYS ([3]; at 0-5° C.): (0.631%); PURITY AFTER 17 DAYS ([3]; at 0-5° C.): 98.39%; % of impurity (RT-~22.0 min), initial ([3]; at 0-5° C.): (0.573%); INITIAL PURITY ([3]; at 0-5° C.): 98.11%; % of impurity (RT-~22.0 min) AFTER 6 DAYS ([3]; at 25~30° C.): (0.770%); PURITY AFTER 6 DAYS ([3]; at 25~30° C.): 98.12%; % of impurity (RT-~22.0 min) AFTER 17 DAYS ([3]; at 25~30° C.): (0.850%); PURITY AFTER 17 DAYS ([3]; at 25~30° C.): 97.87%; % of impurity (RT-~22.0 min), initial ([3]; at 25~30° C.): (0.573%); INITIAL PURITY ([3]; at 25~30° C.): 98.11%; stability (in words) ([3]; room temperature conditions): less stable
(S)-2-ethoxy-3-(4-(2- (2-methyl-5-(4-(methylthio)phenyl)-1H-pyrrol-1-yl)ethoxy)phenyl)propanoic Acid Magnesium Salt [Example 31] |  |  |  |  |  | 96.95 | 95.55 |  | 
(S)-2-ethoxy-3-(4-(2-(2-methyl-5-(4-(methylthio)phenyl)-1H-pyrrol-1-yl)ethoxy)phenyl)propanoic Acid Aluminum Salt [Example 14] | −35.1 ± 10.9 | −63.1 ± 6.2 | 63,1% | 61.9 ± 7.4 | 37.4 ± 3.4 | 96.79 | 94.94 |  | 
(S)-2-ethoxy-3-(4-(2-(2-methyl-5-(4-(methylthio)phenyl)-1H-pyrrol-1-yl)ethoxy)phenyl)propanoic Acid Magnesium Salt [Example 28] | −47.7 ± 10.2 | −70.2 ± 5.8 |  | 64.3 ± 8.6 |  | 93.08 | 90.72 | 30.0 ± 3.8 | 
(S)-2-ethoxy-3-(4-(2-(2-methyl-5-(4-(methylthio)phenyl)-1H-pyrrol-1-yl)ethoxy)phenyl)propanoic Acid Magnesium Salt [Example 29] | −35.5 ± 7.5 | −63.3 ± 4.3 |  | 59.4 ± 5.0 |  | 97.68 | 94.63 | 37.0 ± 3.5 | 
(S)-2-ethoxy-3-(4-(2-(2-methyl-5-(4-(methylthio)phenyl)-1H-pyrrol-1-yl)ethoxy)phenyl)propanoic Acid Magnesium Salt [Example 32] | −44.5 ± 10.4 | −68.4 ± 5.9 |  | 61.9 ± 7.7 |  | 97.10 | 95.78 | 32.6 ± 4.9 | 
(S)-2-ethoxy-3-(4-(2-(2methyl-5-(4-(methylthio)phenyl)-1H-pyrrol-1-yl)ethoxy)phenyl)propanoic Acid Calcium Salt [Example 16] | −33.9 ± 14.3 | −62.4 ± 8.1 | 62.4% | 61.3 ± 6.4 | 38.2 ± 5.6 | 96.83 | 96.76 |  | 
